Assay results taken from patent US4837228A, “Antiinflammatory and antimicrobial compounds and compositions” (The University of Mississippi, priority 1982, dated 1989).
Converted amounts (≈) assume the structure as drawn. “Also recorded” adds a separate entry of the source. Read-outs that look alike come from different tables or passages of the source.

Columns and labels:
[1] = tested on: carrageenan-induced rat paw edema; assay: carrageenan-induced rat paw edema test, oral gavage; type: in vivo; parameters: key to mean difference in volume (MDV): ml; post-injection minus pre-injection mean paw volume; conditions: for inhibition at 120 mg/kg / inhibition at 240 mg/kg / inhibition at 480 mg/kg: Rattus norvegicus, po, Table 5; for inhibition at 120 mg/kg: read-out: inhibition of carrageenan-induced rat paw edema
Experimental: In the Rat Paw Edema Test, the rats utilized were divided into test groups of six to eight animals, weighed and marked so that individual rats could be identified; one hour before testing all rats were given a 700 mg/kg intraperitoneal injection of ethyl urethane in distilled water to render them tractable during testing. […] Negative control groups received the vehicle; while positive control groups received a dose of phenylbutazone (PBZ) as shown in Table II. Test compounds were given at doses of 60, 120, 240 and 480 mg/kg. The positive controls were given at 120 mg/kg and 60 mg/kg. Phenylbutazone was prepared for injection by suspending it in normal saline using Tween 60. The rats were then held in group cages for 30 minutes. The volume of the left hind paw was measured using a mercury displacement pleysmograph. The paw is dipped into the mercury until the mercury touches the line above the ankle. Mercury is then withdrawn until the mercury returns to its original level. The amount of mercury removed is measured in milliliters (ml). The mercury can be measured accurately to 0.01 ml. This left hind paw was then injected with 0.1 ml of a 5% w/v solution of viscous carageenan in normal saline. The injection was given between the metatarsal bones using a 27 gauge needle, and the rats then held in group cages for 3 hours. The volume of the left hind paws was measured again in the pleysmograph. The results were computed in the following manner:
a. A mean is taken for both the pre-injection and post-injection paw volume of each test group.
b. The mean difference in volume (MDV) for each test group is computed by subtracting the pre-injection means from the post-injection mean.
c. The percent of control is computed for each test [formula] The percent of control is used to compare the efficacy of the various drug treatments.
d. The percent increase in paw volume is calculated for each group as: [formula] The percent increase is used to compare the amount of edma observed in one experiment to the amount of edma observed in other experiments.
[…] The test was conducted twice, once with nonfasted rats and once with rats that had been fasted during the 24 hour period prior to dosing. The 60 mg/kg phenylbutazone control group was not used in the test with fasted animals. Tween 60 in normal saline was the vehicle control for the non-fasted rats and normal saline was the vehicle control for the fasted rats.

[2] = tested on: Mycobacterium smegmatis; assay: MIC, two-fold (broth) serial dilution, M. smegmatis; type: cell-based; conditions: Mycolicibacterium smegmatis, read-out: MIC
Procedure, shortened: (§1)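 Qualitative: agar well diffusion. Quantitative: two-fold (broth) serial dilution → MIC. Inoculum = 1 loop-full, 1:10 dilution of 24-h broth culture in sterile water; fungi/M. smegmatis 48–72 h incubation. Controls: streptomycin sulfate (antibacterial), amphotericin B (antifungal).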

[3] = tested on: Saccharomyces cerevisiae; assay: MIC, two-fold (broth) serial dilution, S. cerevisiae; type: cell-based
Procedure, shortened: as §1

[4] = tested on: Trichophyton mentagrophytes; assay: MIC, two-fold (broth) serial dilution, T. mentagrophytes; type: cell-based
Procedure, shortened: as §1

[5] = tested on: Staphylococcus aureus; assay: agar well diffusion assay, S. aureus; type: cell-based; conditions: from edge of agar well
Experimental: (§2) Both qualitative and quantitative screens were performed. Qualitative screening was accomplished using the agar well diffusion assay technque while quantitative screening was accomplished by the two-fold (broth) serial dilution method to determine the minimum inhibitory concentration (MIC). Innoculation was accomplished with one loop-full of a 1:10 dilution of the 24-hour-old broth culture, (fungal cultures and M.smegmatis more often required 48 to 72 hours of incubation) of the test organisms in sterile water. Streptomycin sulfate was used as a positive control for antibacterial activity while amphitericin B was used as an antifungal positive control. Organisms utilized in the screens included gram-positive, gram-negative, and acid-fast bacteria as well as different types of fungi. […] An intermediate type activity is seen where R is hydrogen. However, where R is lengthened up to C15 a decrease in activity was noted. Total saturation of the two double bonds in the compounds having a methyl side chain lead, in most cases, to an increase in both antifungal and antibacterial activity.

[6] = tested on: Escherichia coli; assay: agar well diffusion assay, E. coli; type: cell-based; conditions: from edge of agar well
Experimental: as §2

[7] = tested on: Candida albicans; assay: agar well diffusion assay, C. albicans; type: cell-based; conditions: from edge of agar well
Experimental: as §2

[8] = tested on: Trichophyton mentagrophytes; assay: agar well diffusion assay, T. mentagrophytes; type: cell-based; conditions: one entry across 48 hr and 72 hr
Experimental: as §2

[9] = Table 6, 120 mg/kg oral, non-fasted rats
[10] = Table 6, 240 mg/kg oral, non-fasted rats
[11] = Table 6, 480 mg/kg oral, non-fasted rats
[12] = Table 7, 120 mg/kg oral, fasted rats, doses approximate
[13] = Table 7, 240 mg/kg oral, fasted rats, doses approximate
[14] = Table 7, 480 mg/kg oral (given following saline infusion), fasted rats, doses approximate

SMILES: CCCCCc1cc(O)c2c(c1)OC(C)(CCC=C(C)C)C=C2 (stereo not drawn) [CBC (I), 2-methyl-2(4'methyl-pent-3'-enyl)-5-hydroxy-7-pentyl chromene]
- inhibition at 120 mg/kg ([1]; 120 mg/kg oral, fasted rats, N.S.): 35%
- inhibition at 120 mg/kg ([1]; 120 mg/kg oral, nonfasted rats): 21%
- inhibition at 240 mg/kg ([1]; 240 mg/kg oral, fasted rats, * P = 0.01): 67%
- inhibition at 240 mg/kg ([1]; 240 mg/kg oral, nonfasted rats, ** P = 0.05): 34%
- inhibition at 480 mg/kg ([1]; 480 mg/kg oral, fasted rats, ** P = 0.05): 55%
- inhibition at 480 mg/kg ([1]; 480 mg/kg oral, nonfasted rats, * P = 0.01): 50%
- mean difference in volume (MDV) [1, 9]: 0.496
- percent increase in paw volume [1, 9]: 41.311%
- percent of control [1, 9]: 79.400%
- mean difference in volume (MDV) [1, 10]: 0.412
- percent increase in paw volume [1, 10]: 38.372%
- percent of control [1, 10]: 66.000%
- mean difference in volume (MDV) [1, 11]: 0.315
- percent increase in paw volume [1, 11]: 29.200%
- percent of control [1, 11]: 50.400%
- mean difference in volume (MDV) [1, 12]: 0.409
- percent increase in paw volume [1, 12]: 31.382%
- percent of control [1, 12]: 65.400%
- mean difference in volume (MDV) [1, 13]: 0.209
- percent increase in paw volume [1, 13]: 15.981%
- percent of control [1, 13]: 53.400%
- mean difference in volume (MDV) [1, 14]: 0.281
- percent increase in paw volume [1, 14]: 22.321%
- percent of control [1, 14]: 45.000%
- antiinflammatory activity compared with PBZ in words ([1]; oral, listed as CBC): about equally effective at 120 mg/kg in the fasted rats; also recorded: generally more effective in inhibiting edema than was PBZ
- MIC ([2]; 24 h): 12.5 µg/mL (≈ 39.7 µM)
- MIC ([2]; 48 h): 25 µg/mL (≈ 79.5 µM)
- MIC ([3]; 48 hr): 25.0 µg/mL (≈ 79.5 µM)
- MIC ([3]; 72 hr): 50.0 µg/mL (≈ 159 µM)
- MIC ([3]; Saccharomyces cerevisiae, 48 h, read-out: MIC): 25 µg/mL (≈ 79.5 µM)
- MIC ([3]; Saccharomyces cerevisiae, 72 h, read-out: MIC): 50 µg/mL (≈ 159 µM)
- MIC ([4]; 48 hr): 25.0 µg/mL (≈ 79.5 µM)
- MIC ([4]; 72 hr): 50.0 µg/mL (≈ 159 µM)
- MIC ([4]; Trichophyton mentagrophytes, 48 h, read-out: MIC): 25 µg/mL (≈ 79.5 µM)
- MIC ([4]; Trichophyton mentagrophytes, 72 h, read-out: MIC): 50 µg/mL (≈ 159 µM)
- width of inhibition zone ([5]; 24 hr): 10. mm
- width of inhibition zone ([5]; 48 hr): 10. mm
- width of inhibition zone ([6]; 24 hr): 5. mm
- width of inhibition zone ([6]; 48 hr): 5. mm
- width of inhibition zone ([7]; 48 hr): 4.0 mm
- width of inhibition zone ([7]; 72 hr): 4.0 mm
- agar well diffusion result in words [8]: No growth
